These results are taken from PubChem BioAssay (NCI).

SMILES strings stand for the structures.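 Step 1: Grow cells in 96-well plates. Step 2: Expose to compound for 48 hours at 5 concentrations. Step 3: Interpolate endpoints linearly; if unreached, use highest concentration. TGI is the concentration that stops growth completely.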

Assay in all cases: inhibition of tumour cell growth, NCI panel, 48 h
The subject of assay [1] is IGROV1 ovarian.
Assay [2] relates to OVCAR-3 ovarian.
The subject of assay [3] is OVCAR-4 ovarian.
Assay [4] deals with MDA-MB-435.
Assay [5] concerns CAKI-1 renal.
Assay [6] has as its system HOP-62 NSCLC.
Assay [7] relates to MOLT-4 leukemia.
For assay [8], the system named is NCI-H460 lung.
In assay [9] the test system is U251 CNS.
For assay [10], the system named is MALME-3M melanoma.

With `N=C(N)SCCON1C(=O)c2ccccc2C1=O`, the TGI in assay [1], in [2], in [3], in assay [4], in assay [5] and in [6] was greater than 100 µM throughout. The TGI in [7], in assay [8], in assay [9] and in [10] was greater than 100 µM in each case.

For `Cc1ccc(S(=O)(=O)N/C(=C\C=C\c2ccccc2)C(=O)C(C)(C)C)cc1`, the TGI was greater than 100 µM in assay [1]; greater than 100 µM in assay [2]; greater than 100 µM in assay [3]; greater than 100 µM in [4]; greater than 100 µM in assay [5]; 44 µM in assay [6]. The TGI in assay [7], in assay [8], in assay [9] and in assay [10] was greater than 100 µM each time.

Take `O=C(Nc1ccccc1F)c1c(O)nc2sccn2c1=O`: the TGI in assay [1], in assay [2], in assay [3], in assay [4], in assay [5] and in assay [6] was greater than 10 µM throughout. The TGI in assay [7], in assay [8], in [9] and in assay [10] was greater than 10 µM throughout.

In the case of `CCNC(=O)Nc1cccc(C)n1`, the TGI in assay [1], in [2], in assay [3], in assay [4], in assay [5] and in [6] was greater than 100 µM throughout. Further, the TGI in assay [7], in assay [8], in assay [9] and in [10] was greater than 100 µM throughout.

As for `Cc1ccc(F)cc1NC(=O)O/N=C(\Cl)C(C)C`, the TGI in [1] worked out at 33.6 µM; in assay [2], 13.9 µM; in assay [3] it was 33.1 µM; in assay [4] it was 32.2 µM; in assay [5] it was 3.09 µM; in assay [6], 37.2 µM. Further, the TGI in assay [7] is 4.83 µM; in assay [8], 86 µM; in assay [9] it was greater than 56.4 µM; in assay [10], 16 µM.

As to `CSc1nc(NC2CCCC2)c2cc[nH]c2n1`, the TGI in assay [1], in [2], in assay [3], in assay [4], in assay [5] and in [6] was greater than 100 µM throughout. Further, the TGI in assay [7], in assay [8], in assay [9] and in assay [10] was greater than 100 µM throughout.

In the case of `S=C1c2ccccc2NC(=NC2CCCC2)C2CSCN12` (stereo not given), the TGI in assay [1], in [2], in assay [3], in assay [4], in [5] and in assay [6] was greater than 100 µM each time. In addition, the TGI in assay [7], in assay [8], in assay [9] and in [10] was greater than 100 µM each time.

`O=c1[nH]nc(Cc2ccccc2)n1/N=C/c1c[nH]c2ccccc12`: the TGI was greater than 100 µM in assay [1]; greater than 100 µM in assay [2]; greater than 100 µM in [3]; greater than 100 µM in assay [4]; 81.8 µM in assay [5]; greater than 100 µM in [6]. Besides, the TGI in [7], in assay [8], in [9] and in [10] was greater than 100 µM throughout.

In the case of `C=CC(=O)N1C/C(=C\c2ccc(N(C)C)cc2)C(=O)/C(=C/c2ccc(N(C)C)cc2)C1`, the TGI in assay [1], in [2], in assay [3], in assay [4], in [5] and in assay [6] was greater than 100 µM throughout. Moreover, the TGI in assay [7], in assay [8], in [9] and in [10] was greater than 100 µM in each case.

Consider `CC(C)(CO)CNc1cc(=O)[nH]c(N)n1`, for which the TGI in [1], in assay [2], in assay [3], in assay [4], in assay [5] and in assay [6] was greater than 100 µM in each case. For the same compound, the TGI in assay [7], in assay [8], in assay [9] and in [10] was greater than 100 µM each time.

Take `CCCCOC(=O)C(=O)C(CCC(=O)c1ccc(C)cc1)C(=O)C=C(C)C` (stereo not given): the TGI in assay [1], in assay [2], in assay [3], in [4], in assay [5] and in [6] was greater than 100 µM each time. In addition, the TGI in [7], in assay [8], in [9] and in assay [10] was greater than 100 µM throughout.

In the case of `Cc1ccc(C(=O)N(C2CCCCC2)C2CCCCC2)cc1N=NN(C)C`, the TGI came to 32.4 µM in [1]; 19.2 µM in [2]; 24 µM in assay [3]; 30 µM in assay [4]; 27.2 µM in assay [5]; 25.2 µM in assay [6]. The TGI in assay [7] amounted to 76.7 µM; in assay [8], 35.5 µM; in [9] it was 34.1 µM; in assay [10], 31 µM.

In the case of `OC(C1CCC=NN1C(O)(C(F)(F)F)C(F)(F)F)(C(F)(F)F)C(F)(F)F` (stereo not given), the TGI in assay [1], in assay [2], in [3], in assay [4], in assay [5] and in [6] was greater than 10 µM each time. Also, the TGI in assay [7], in [8], in assay [9] and in assay [10] was greater than 10 µM each time.

As for `CC(=O)OC[C@H]1O[C@@H](O[C@H]2[C@H](OC(C)=O)C=CO[C@@H]2COC(C)=O)C(OC(C)=O)[C@H]2OC(C)(C)O[C@H]21` (stereo not given in full), the TGI in [1], in assay [2], in [3], in [4], in assay [5] and in assay [6] was greater than 100 µM throughout. Besides, the TGI in assay [7], in [8], in [9] and in assay [10] was greater than 100 µM in each case.

Take `CC(=O)NNc1nc(C)c(C(/C=C/c2ccc3c(c2)OCO3)=N/Nc2ccccc2)s1`: the TGI in assay [1], in assay [2], in assay [3], in assay [4], in assay [5] and in [6] was greater than 100 µM in each case. Further, the TGI in assay [7], in assay [8], in [9] and in assay [10] was greater than 100 µM each time.

Turning to `COC(=O)Cc1ccc2c(c1)Sc1ccc(CC(=O)OC)cc1N2C`, the TGI in assay [1] was greater than 100 µM; in assay [2] it was greater than 100 µM; in assay [3] it was greater than 100 µM; in assay [4] it was greater than 100 µM; in [5] it was 52 µM; in assay [6], greater than 100 µM. For the same compound, the TGI is greater than 100 µM in assay [7], greater than 100 µM in assay [8], greater than 100 µM in [9] and 80.6 µM in assay [10].

With `COc1ccc(N(C(=O)Nc2ccc(Cl)c(Cl)c2)c2ccccc2)cc1`, the TGI in [1], in assay [2], in assay [3], in [4], in assay [5] and in assay [6] was greater than 10 µM in each case. For the same compound, the TGI in assay [7], in assay [8], in assay [9] and in [10] was greater than 10 µM each time.

As to `Oc1ccc(/C=C\c2nnc(/C=C\c3ccc(O)c(O)c3)s2)cc1O`, the TGI was 20.7 µM in assay [1]; 16.3 µM in assay [2]; 16 µM in [3]; 15.1 µM in assay [4]; 16.8 µM in assay [5]; 21.8 µM in assay [6]. Moreover, the TGI in [7] was 11.7 µM; in assay [8] it was 15.6 µM; in assay [9], 13.5 µM; in assay [10], 17.7 µM.

Consider `O=C(Nc1sccc1S(=O)(=O)c1ccccc1)c1cccnc1`, for which the TGI is greater than 94.2 µM in assay [1]; greater than 100 µM in assay [2]; greater than 100 µM in assay [3]; 8.36 µM in assay [4]; greater than 100 µM in assay [5]; greater than 100 µM in [6]. For the same compound, the TGI in assay [7], in assay [8], in [9] and in [10] was greater than 100 µM each time.

As to `NCCC(N)C(=O)O` (stereo not given), the TGI in [1], in assay [2], in assay [3], in [4], in assay [5] and in assay [6] was greater than 100 µM each time. Further, the TGI in [7], in assay [8], in assay [9] and in assay [10] was greater than 100 µM throughout.

Regarding `CC(C)(CN)CN`, the TGI in assay [1], in [2], in assay [3], in assay [4], in assay [5] and in [6] was greater than 100 µM throughout. The TGI in [7], in [8], in [9] and in assay [10] was greater than 100 µM each time.

Turning to `Cc1ccc(C(=O)OC[C@H]2CC[C@@H](n3cc(N(C)C4CCCCC4)c(=O)[nH]c3=O)O2)cc1`, the TGI in [1] is greater than 100 µM; in [2] it was 54.4 µM; in [3] it was 68.4 µM; in [4], greater than 100 µM; in assay [5], greater than 100 µM; in assay [6], 41.7 µM. Also, the TGI in assay [7] is greater than 100 µM; in assay [8], greater than 100 µM; in assay [9] it was 38.7 µM; in assay [10], 56.7 µM.

As for `CCCC/C=C1\CCC(CN2CCCCC2)C1=O` (stereo not given), the TGI is 36.7 µM in [1]; 46 µM in assay [2]; 48 µM in [3]; greater than 100 µM in [4]; 17.8 µM in assay [5]; 49.4 µM in assay [6]. Further, the TGI in assay [7] worked out at 18.4 µM; in assay [8], 55.5 µM; in [9], 44.1 µM; in [10], 15.4 µM.

For `COC(=O)/C=C/c1ccccc1N=[S@](C)(=O)c1ccc(C)cc1`, the TGI in assay [1] is greater than 100 µM; in assay [2], 55.8 µM; in assay [3] it was greater than 100 µM; in [4], 16.2 µM; in assay [5] it was greater than 100 µM; in assay [6], greater than 100 µM. The TGI in [7] is greater than 100 µM; in assay [8], 49.9 µM; in [9], 51 µM; in assay [10], greater than 100 µM.

As to `c1ccc(CNc2c3c(nc4ccccc24)CCC3)cc1`, the TGI in assay [1] came to 42.4 µM; in assay [2] it was 30.8 µM; in assay [3], 58.7 µM; in [4], 30.6 µM; in assay [5], 45.3 µM; in assay [6], 25.6 µM. Also, the TGI in assay [7] was determined as 51 µM; in [8] it was 25 µM; in assay [9], 30.4 µM; in assay [10] it was 33.4 µM.

Turning to `Cc1cnoc1NC1=CC(=O)C(=O)c2ccccc21`, the TGI in assay [1] was greater than 100 µM; in [2] it was greater than 100 µM; in assay [3] it was greater than 100 µM; in [4], 2.64 µM; in assay [5], greater than 100 µM; in assay [6], greater than 100 µM. Further, the TGI in assay [7] was 38.8 µM; in assay [8] it was greater than 100 µM; in [9], 13.9 µM; in assay [10], 9.81 µM.
